The values that follow come from patent US20230151075A1, “PARATHYROID HORMONE ATTENUATES LOW BACK PAIN AND OSTEOARTHRITIC PAIN” (The Johns Hopkins University, priority 2019, published 2023).

One assay relates to primary DRG neurons. Nature of the assay: Sodium indication (ANG-2 AM) in primary DRG neurons. It is filed as cell-based, mice. On the procedure:
DRG neuron culture was processed as described previously. Saijilafu and Zhou, 2012. Briefly, the dishes or coverslips for DRG neuron culture were coated with 50 μL working solution containing 100 μg/mL Poly-D-Lysine and 10 µg/mL Laminin at 37° C. To prepare the neuron culture medium, alpha minimum essential medium (α-MEM) was supplemented with 1× penicillin-streptomycin solution (500 units of penicillin and 500 μg of streptomycin, Gibco Laboratories, Gaithersburg, Md.), 5% fetal bovine serum (Gibco), 1× GlutaMAX-1 supplement (35050-061, Thermo Fisher Scientific), and the antimitotic reagents containing 20 μM 5-fluoro-2-deoxyuridine (F0503, Sigma-Aldrich) and 20 μM uridine (U3003, Sigma-Aldrich). For the serum-free medium, the fetal bovine serum was replaced with the supplement B27. After euthanizing the 6- to 8-week-old mice, the lumbar DRGs were harvested and stored in microfuge tubes with α-MEM medium placed on ice. DRG neurons were digested and dissociated with 1 mg/mL collagenase A solution (10103578001, Roche, Basel, Switzerland) in a 37° C. incubator for 90 min followed by 1× TrypLE Express solution (15140-122, Thermo Fisher) at 37° C. for 20 min. Then, TrypLE Express solution was removed, and DRGs were washed gently 3 times with 1 mL prepared culture medium (containing 5% fetal bovine serum). Tissue was triturated by gently pipetting up and down 20-30 times in 1 mL prepared culture medium. After trituration, the DRG neuron suspension was filtered (40-μm strainer) following non-dissociated tissue settlement to the bottom of the microfuge and transferred to another tube. After centrifugation (800 r.p.m for 4 min at room temperature), the cell pellet was resuspended and cultured in a precoated dish.
For sodium indication. ANG-2 AM (Teflabs, Austin, Tex.) was used according to the manufacturer's protocol. Briefly, 1 mM stock solution of ANG-2 AM was diluted to twice the original volume with a solution of 20% Pluronic F-127 (Thermo Fisher Scientific) in DMSO. Then, the ANG-2 AM/Pluronic F-127 solution was dispersed to final concentration at 5 μM ANG-2 AM and 0.1% Pluronic F-127 with serum-free culture medium. After incubation for 1 h at 37° C., the cell loading medium was removed. The cells were washed with serum-free and dye-free medium and prepared for sodium imaging. The sterile imaging buffer contained 5.4 mM KCL, 160 mM NaCL, 20 mM HEPES, 1.3 mM CaCL2, 0.8 mM MgSO4, 0.78 mM NaH2PO4, and 5 mM glucose (pH 7.4) The sodium imaging was monitored and captured using a confocal microscope (Zeiss LSM 780).
In different sets of experiments, the DRG neurons were treated with 20 μM PGE2 (14010, Cayman Chemical, Ann Arbor, Mich.) for 5 min. […]

The subject of another assay is PKA/CREB signaling. Nature of the assay: Western blot and fluorescent staining of PKA and CREB phosphorylation in primary DRG neurons. It is filed as cell-based, mice. As for the experimental part: DRG neuron culture was processed as described previously. Saijilafu and Zhou, 2012. Briefly, the dishes or coverslips for DRG neuron culture were coated with 50 μL working solution containing 100 μg/mL Poly-D-Lysine and 10 µg/mL Laminin at 37° C. To prepare the neuron culture medium, alpha minimum essential medium (α-MEM) was supplemented with 1× penicillin-streptomycin solution (500 units of penicillin and 500 μg of streptomycin, Gibco Laboratories, Gaithersburg, Md.), 5% fetal bovine serum (Gibco), 1× GlutaMAX-1 supplement (35050-061, Thermo Fisher Scientific), and the antimitotic reagents containing 20 μM 5-fluoro-2-deoxyuridine (F0503, Sigma-Aldrich) and 20 μM uridine (U3003, Sigma-Aldrich). For the serum-free medium, the fetal bovine serum was replaced with the supplement B27. After euthanizing the 6- to 8-week-old mice, the lumbar DRGs were harvested and stored in microfuge tubes with α-MEM medium placed on ice. […]
The primary DRG neurons were treated with 20 μM PGE2(14010, Cayman Chemical, Ann Arbor, Mich.) for 30 min; 10 μM PKA inhibitor (H-89, BML-E1196, Enzo Life Sciences, Farmingdale, N.Y.) for 1 h. […] Specific antibodies were applied for incubation, and the proteins were detected by using an enhanced chemiluminescence kit (Amersham Bioscience, RNP2108). […]
A general note: In western blotting, separated proteins are transferred to a membrane and probed.

The subject of assay [1] is patients with Modic changes associated LBP. The settings on record: cited from earlier work.
In another assay the test system is OA joint. Particulars: intra-articular injection; cited from earlier work.

In the case of `CCCCC[C@H](O)/C=C/[C@H]1[C@H](O)CC(=O)[C@@H]1C/C=C\CCCC(=O)O` [PGE2, Prostaglandin E2], the PGE2-stimulated sodium influx entry with primary DRG neurons (DRG neurons of EP4−/− mice) is reported as “abolished”. The “sodium influx (fluorescent intensity of sodium indicator)” value with primary DRG neurons (PGE2 20 μM 5 min, DRG neurons from EP4f/f mice) is reported as “significantly stimulated the enhancement of the fluorescent intensity”. The “activation of PKA and CREB” value with PKA/CREB signaling (PGE2 20 μM 30 min) is recorded as “activates”.

For the compound `O=S(=O)(NCCNC/C=C/c1ccc(Br)cc1)c1cccc2cnccc12` [PKA inhibitor, H-89], the PGE2-induced sodium influx result in the assay on primary DRG neurons (PGE2 20 μM combined with H-89 10 μM or siRNA for Nav 1.8) is “ablated”. In the assay on PKA/CREB signaling (H-89 10 μM 60 min), the “PGE2-induced activation of PKA and CREB” value is “abrogated”.

As to `CCCC(=O)Nc1ncnc2c1ncn2[C@@H]1O[C@@H]2COP(=O)(O)O[C@H]2[C@H]1OC(=O)CCC` [cAMP, dibutyryl-cAMP], the sodium influx entry in the assay on primary DRG neurons (DRG neurons of EP4−/− mice, PGE2 combined with cAMP) is listed as “rescued sodium influx”.

Regarding denosumab, the analgesic effects entry in assay [1] is given as “analgesic effects”.

As to hyaluronic acid, the “duration of pain relief” value in the assay on OA joint is given as “up to 6 months”.
